Experimental data published in PubChem BioAssay AID330 (DTP/NCI, 2004).
“And” between values parts separate entries of the source, which are not always exact repeats. Identical values can stand only once. Inconclusive results and toxic doses are left out. Rule for the calls: active = survival T/C of 150% or more; inactive = T/C below 125% in these data.

System: P388 leukemia ip, CD2F1 mice, survival T/C
Assay: NCI In Vivo Anticancer Drug Screen. Data for tumor model P388 Leukemia (intraperitoneal) in CD2F1 (CDF1) mice
Conditions: endpoint: median survival time, higher = longer survival
Summary of the method: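 Mice carrying the transplanted tumor received test compound or vehicle. Survival was recorded in each group, and the value is the treated-group measurement divided by that of the vehicle-treated control group.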

[1] = dose: 6.25 mg/kg/injection, schedule: Q01DX005 (ip), vehicle: saline with Tween-80
[2] = dose: 12.5 mg/kg/injection, schedule: Q01DX005 (ip), vehicle: saline with Tween-80
[3] = dose: 100.0 mg/kg/injection, schedule: Q01DX009 (ip), vehicle: saline with Tween-80
[4] = dose: 100.0 mg/kg/injection, schedule: Q04DX003 (ip), vehicle: saline with Tween-80
[5] = dose: 200.0 mg/kg/injection, schedule: Q01DX009 (ip), vehicle: saline with Tween-80
[6] = dose: 200.0 mg/kg/injection, schedule: Q04DX003 (ip), vehicle: saline with Tween-80
[7] = dose: 400.0 mg/kg/injection, schedule: Q04DX003 (ip), vehicle: saline with Tween-80
[8] = dose: 50.0 mg/kg/injection, schedule: Q01DX005 (ip), vehicle: Klucel (hydroxypropylcellulose) (HPC)
[9] = dose: 100.0 mg/kg/injection, schedule: Q01DX009 (ip), vehicle: saline
[10] = dose: 200.0 mg/kg/injection, schedule: Q01DX009 (ip), vehicle: saline
[11] = dose: 12.5 mg/kg/injection, schedule: Q01DX005 (ip), vehicle: Klucel (hydroxypropylcellulose) (HPC)
[12] = dose: 25.0 mg/kg/injection, schedule: Q04DX003 (ip), vehicle: saline with Tween-80
[13] = dose: 50.0 mg/kg/injection, schedule: Q01DX009 (ip), vehicle: saline with Tween-80

Measured: T/C

NC(=S)N/N=C/C1=C(Cl)c2ccccc2C1
inactive: [1] 109 % of control | [2] 119 % of control

CCOC(=O)c1cnc2cc3c(cc2c1Nc1ccc2c(c1)OCO2)OCO3
inactive: dose: 60.0 mg/kg/injection, schedule: Q01DX005 (ip), vehicle: Klucel + Tween-80 108 % of control | dose: 120.0 mg/kg/injection, schedule: Q01DX005 (ip), vehicle: Klucel + Tween-80 109 % of control

CC1C[C@@H]2[C@H]([C@@H](O)C[C@@]3(C)[C@H]2CC[C@]3(O)C(=O)CF)[C@@]2(C)CCC(=O)C=C12 (some centres undefined)
inactive: [3] 100 % of control | [4] 109 % of control | [5] 95 % of control | [6] 109 % of control | [7] 100 % of control

CCn1c2ccccc2c2cc(/C=N/Nc3cc(C)nc4cc5c(cc34)OCO5)ccc21
inactive: [8] 100 % of control | dose: 100.0 mg/kg/injection, schedule: Q01DX005 (ip), vehicle: Klucel (hydroxypropylcellulose) (HPC) 89 % of control

CC1C(=O)C(C)C(c2ccccc2Cl)OC1c1ccccc1Cl (centres undefined)
inactive: dose: 50.0 mg/kg/injection, schedule: Q01DX009 (ip), vehicle: saline 112 % of control | [9] 102 % of control | [10] 96 % of control

C=C1C[C@H](O)[C@H]2C(C[Se]c3ccccc3)C(=O)O[C@@H]2[C@H]2[C@H](C)C(O)C[C@@H]12 (some centres undefined)
inactive: dose: 60.0 mg/kg/injection, schedule: Q01DX005 (ip), vehicle: saline with Tween-80 91 % of control | dose: 120.0 mg/kg/injection, schedule: Q01DX005 (ip), vehicle: saline with Tween-80 95 % of control | dose: 240.0 mg/kg/injection, schedule: Q01DX005 (ip), vehicle: saline with Tween-80 98 % of control

COCCOCCOCCOCCOCCOCCOCCOCCOCCOCCOCCOCCOCCOCCn1cc(F)c(=O)[nH]c1=O
inactive: dose: 100.0 mg/kg/injection, schedule: Q04DX002 (ip), vehicle: saline 100 % of control | dose: 200.0 mg/kg/injection, schedule: Q04DX002 (ip), vehicle: saline 101 % of control | dose: 400.0 mg/kg/injection, schedule: Q04DX002 (ip), vehicle: saline 104 % of control | dose: 800.0 mg/kg/injection, schedule: Q04DX002 (ip), vehicle: saline 100 % of control

COc1ccc(N2C(N)=NC(N)=NC2(C)C)cc1
inactive: [1] 93 % of control | [2] 102 % of control | dose: 25.0 mg/kg/injection, schedule: Q01DX005 (ip), vehicle: saline with Tween-80 107 % of control

CCC(C)C(N)C(=O)NC(CC(N)=O)C(=O)NC(CC(C)C)C(=O)NC(CCCCN)C(=O)NC(C)C(=O)NC(CC(C)C)C(=O)NC(C)C(=O)NC(C)C(=O)NC(CC(C)C)C(=O)NC(C)C(=O)NC(CCCCN)C(=O)NC(CCCCN)C(=O)NC(C(=O)NC(CC(C)C)C(N)=O)C(C)CC (centres undefined)
inactive: dose: 1.56 mg/kg/injection, schedule: Q01DX005 (ip), vehicle: Klucel (hydroxypropylcellulose) (HPC) 102 % of control | dose: 3.12 mg/kg/injection, schedule: Q01DX005 (ip), vehicle: Klucel (hydroxypropylcellulose) (HPC) 100 % of control | dose: 6.25 mg/kg/injection, schedule: Q01DX005 (ip), vehicle: Klucel (hydroxypropylcellulose) (HPC) 95 % of control | [11] 94 % of control and 96 % of control

CCOC1=CCCCC1
inactive: dose: 100.0 mg/kg/injection, schedule: Q04DX003 (ip), vehicle: alcohol 100 % of control | dose: 200.0 mg/kg/injection, schedule: Q04DX003 (ip), vehicle: alcohol 100 % of control | dose: 400.0 mg/kg/injection, schedule: Q04DX003 (ip), vehicle: alcohol 104 % of control

O=CC(Br)C(Br)c1ccccc1 (centres undefined)
inactive: dose: 6.25 mg/kg/injection, schedule: Q01DX009 (ip), vehicle: saline with Tween-80 122 % of control | dose: 6.25 mg/kg/injection, schedule: Q04DX003 (ip), vehicle: saline with Tween-80 109 % of control | dose: 12.5 mg/kg/injection, schedule: Q01DX009 (ip), vehicle: saline with Tween-80 109 % of control | dose: 12.5 mg/kg/injection, schedule: Q04DX003 (ip), vehicle: saline with Tween-80 109 % of control | dose: 25.0 mg/kg/injection, schedule: Q01DX009 (ip), vehicle: saline with Tween-80 100 % of control | [12] 113 % of control

NS(=O)(=O)c1ccc(Cl)c(Cl)c1
inactive: [4] 90 % of control | [6] 90 % of control | [7] 90 % of control

C1CN2CCC1C1(C2)SSC2(CN3CCC2CC3)S1 (centres undefined)
inactive: dose: 6.25 mg/kg/injection, schedule: Q01DX009 (ip), vehicle: saline 100 % of control | dose: 12.5 mg/kg/injection, schedule: Q01DX009 (ip), vehicle: saline 95 % of control | dose: 25.0 mg/kg/injection, schedule: Q01DX009 (ip), vehicle: saline 95 % of control

CCCCCCC(Cn1ccnc1)c1ccccc1Cl (centres undefined)
inactive: [12] 100 % of control | dose: 50.0 mg/kg/injection, schedule: Q04DX003 (ip), vehicle: saline with Tween-80 98 % of control | [4] 106 % of control

COc1ccc(Oc2nc(=O)n3ccsc3n2)cc1
inactive: [4] 108 % of control | [6] 86 % of control | [7] 94 % of control

COC(=O)c1ccccc1NC1=NS(=O)(=O)c2ccccc2N1C
inactive: dose: 50.0 mg/kg/injection, schedule: Q01DX005 (ip), vehicle: saline with Tween-80 87 % of control | dose: 100.0 mg/kg/injection, schedule: Q01DX005 (ip), vehicle: saline with Tween-80 86 % of control | dose: 200.0 mg/kg/injection, schedule: Q01DX005 (ip), vehicle: saline with Tween-80 87 % of control

O=c1[nH]c2c([N+](=O)[O-])cccc2nc1/C=C(\O)c1cccc([N+](=O)[O-])c1
inactive: dose: 7.5 mg/kg/injection, schedule: Q01DX005 (ip), vehicle: Klucel + Tween-80 94 % of control | dose: 15.0 mg/kg/injection, schedule: Q01DX005 (ip), vehicle: Klucel + Tween-80 94 % of control | dose: 30.0 mg/kg/injection, schedule: Q01DX005 (ip), vehicle: Klucel + Tween-80 88 % of control

CCOC(=O)c1c(O)cc(C)[nH]c1=O
inactive: [13] 103 % of control and 96 % of control | [3] 100 % of control and 94 % of control and 98 % of control | [5] 103 % of control and 106 % of control and 93 % of control | dose: 400.0 mg/kg/injection, schedule: Q01DX009 (ip), vehicle: saline with Tween-80 104 % of control and 106 % of control and 122 % of control

C[P+]1(C)CCc2c1ccc1ccccc21
inactive: [13] 102 % of control

Cc1ccc(S(=O)(=O)N/N=C(\Cc2ccccc2)c2ccc(Br)cc2)cc1
inactive: [13] 99 % of control | [3] 99 % of control | [9] 98 % of control | [5] 90 % of control | [10] 98 % of control

O=c1c2ccccc2nc2n1CCC/C2=C\c1ccc(Cl)cc1
inactive: dose: 92.5 mg/kg/injection, schedule: Q04DX002 (ip), vehicle: Klucel (hydroxypropylcellulose) (HPC) 97 % of control | dose: 185.0 mg/kg/injection, schedule: Q04DX002 (ip), vehicle: Klucel (hydroxypropylcellulose) (HPC) 105 % of control | dose: 370.0 mg/kg/injection, schedule: Q04DX002 (ip), vehicle: Klucel (hydroxypropylcellulose) (HPC) 97 % of control

NC(=O)CC(NC(=O)OCC1c2ccccc2-c2ccccc21)C(=O)O (centres undefined)
inactive: [11] 92 % of control | dose: 25.0 mg/kg/injection, schedule: Q01DX005 (ip), vehicle: Klucel (hydroxypropylcellulose) (HPC) 100 % of control | [8] 100 % of control and 105 % of control

COc1cc(C2c3cc4c(c(OC5OC(CO)C(O)C5O)c3CC3COC(=O)C32)OCO4)cc(OC)c1OC (centres undefined)
inactive: dose: 100.0 mg/kg/injection, schedule: Q01DX001 (ip), vehicle: Klucel (hydroxypropylcellulose) (HPC) 108 % of control | dose: 200.0 mg/kg/injection, schedule: Q01DX001 (ip), vehicle: Klucel (hydroxypropylcellulose) (HPC) 108 % of control | dose: 400.0 mg/kg/injection, schedule: Q01DX001 (ip), vehicle: Klucel (hydroxypropylcellulose) (HPC) 113 % of control
